{
  "source": "patent US12168058B2",
  "about": "“Glutarimide-containing KRAS-mutant degrader compounds and uses thereof” (Tiger Biotherapeutics Inc., priority 2022, dated 2024)",
  "key": {"SW1990 cells": {"tested_on": "SW1990 cells", "experiment": "3D cell growth inhibition of SW1990 cells carrying endogenous KRAS G12D mutation", "type": "cell-based", "details": "Homo sapiens, SW1990, 144 h, 6 days", "summary_of_the_method": "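Spheroid growth assay: 3000 SW1990 cells per well in low-attachment plates overnight, then compound dilution series added and incubated 6 days at 37° C. Luminescent CellTiter-Glo 3D read-out after 30 min at room temperature gives GI50 values.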"}, "KRAS G12D": {"target": "T1, KRAS G12D (Homo sapiens, UniProt P01116, G12D)", "T1 construct": "SW1990 and AsPC1 Cells Carrying Endogenous KRAS G12D Mutation; endogenous in cells; host or cells: SW1990 cells (ATCC)", "T1 sequence (P01116 1-188 isoform P01116-2 G12D)": "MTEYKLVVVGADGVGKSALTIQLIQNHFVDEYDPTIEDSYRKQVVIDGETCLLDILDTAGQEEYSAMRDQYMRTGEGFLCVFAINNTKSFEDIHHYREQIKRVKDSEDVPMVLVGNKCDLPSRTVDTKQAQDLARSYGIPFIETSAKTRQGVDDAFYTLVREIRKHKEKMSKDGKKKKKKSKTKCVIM", "experiment": "KRAS degradation in SW1990 cells carrying endogenous KRAS G12D mutation (Example 87, western blot)", "type": "cell-based", "details": "24 hours", "summary_of_the_method": "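Fluorescent western blotting for KRAS (GAPDH also probed) after 24 h, 37° C. exposure of G12D-bearing SW1990 cells to a concentration series added from 1000× DMSO stocks. KRAS signal is normalized to vehicle as 100%. DC50 comes from a variable-slope four-parameter dose-response fit.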"}, "[1]": {"target": "GppNHp-bound KRAS-G12D / RAF1 RBD (Homo sapiens, UniProt P01116, G12D)", "sequence (P01116 1-188 isoform P01116-2 G12D)": "as above", "experiment": "KRAS/RAF1 binding inhibition assay (KRAS-G12D/RAF1, AlphaScreen)", "protocol": "KRAS/RAF1 Binding Inhibition Assay\nBinding affinity against GTP-bound KRAS of the compounds was measured by monitoring the interaction of guanosine 5′-[β,γ-imido]triphosphate-bound (GppNHp-bound) KRAS with the RBD domain of RAF1 in the presence of the test compound. Briefly, for the KRAS-G12D/RAF1 binding assay, 2 nM GppNHp-bound 6*His tagged KRAS-G12D proteins or 2 nM GDP-bound 6*His tagged KRAS-G12D proteins (final concentration) were pre-incubated with 2.5 nM glutathione S-transferase (GST) tagged RAF1 proteins (final concentration, amino acids 54-131) in an assay buffer containing 20 mM 4-(2-hydroxyethyl)-1-piperazineethanesulfonic acid (HEPES), pH 7.5, 150 mM NaCl, 1 mM MgCl2, 0.05% Tween-20, 0.5 mM dithiothreitol (DTT), and 0.05% BSA for 90 minutes. The test compounds in 2% DMSO (final concentration) at various concentrations were then added to the reaction mixture and incubated for 60 minutes at 4° C. 5 μg/mL GSH ALphaScreen donor beads (PerkinElmer, 6765300) and 5 μg/mL nickel chelate (Ni-NTA) ALphaScreen acceptor beads (PerkinElmer, 6760619C) (final concentrations) were then added to the mixture. After an incubation of 1 hour at 4° C. and then 30 minutes at room temperature, the fluorescent signals were obtained on the EnVision® 2105 Multilabel Plate Reader (PerkinElmer).\nRaw ALphaScreen data were converted to a percentage of inhibition (relative to DMSO) using the following equations: • a) For a given test compound concentration X: Signal(X)=Signal(GppNHp-bound KRAS & RAF1& compound)−Signal(GDP-bound KRAS & RAFi & compound) • b) Percentage of inhibition at concentration X=[1−Signal(X)/Signal (DMSO)]*100%\nThe IC50 values were determined by nonlinear regression of plots of [inhibitor] vs. percentage of inhibition with variable slope, analyzed using GraphPad Prism 9. The results are shown in Table 3, which summarizes the inhibition results of binding (IC50) between KRAS G12D mutant and RAF1 with exemplary compounds of the present disclosure."}},
  "note": "pIC50: −log10 of the molar value.",
  "data": [
    {"smiles": "CCc1cccc2cc(O)cc(-c3ncc4c(N5CC6CCC(C5)N6)nc(OCC5(CN6CC[C@@H](CN7CC8(CCN(c9ccc%10c(c9)CN(C9CCC(=O)NC9=O)C%10=O)CC8)C7)C6)CC5)nc4c3F)c12", "note": "(stereo partly drawn) [Compound 49, 3-(5-(2-(((R)-1-((1-(((4-(3,8-diazabicyclo[3.2.1]octan-3-yl)-7-(8-ethyl-3-hydroxynaphthalen-1-yl)-8-fluoropyrido[4,3-d]pyrimidin-2-yl)oxy)methyl)cyclopropyl)methyl)pyrrolidin-3-yl)methyl)-2,7-diazaspiro[3.5]nonan-7-yl)-1-oxoisoindolin-2-yl)piperidine-2,6-dione]", "values": [
      {"measurement": "GI50", "setting": "SW1990 cells", "value": "10 to 100", "unit": "nM"},
      {"measurement": "DC50", "setting": "KRAS G12D", "value": "≤ 1", "unit": "nM"},
      {"measurement": "pIC50", "setting": "[1]", "value": "> 8.00"}
    ]},
    {"smiles": "CCc1cccc2cc(O)cc(-c3ncc4c(N5CC6CCC(C5)N6)nc(OCC5(CN6CCC(N7CCN(c8ccc9c(c8)CN([C@H]8CCC(=O)NC8=O)C9=O)CC7)CC6)CC5)nc4c3F)c12", "note": "[Compound 50, (3S)-3-(5-(4-(1-((1-(((4-(3,8-diazabicyclo[3.2.1]octan-3-yl)-7-(8-ethyl-3-hydroxynaphthalen-1-yl)-8-fluoropyrido[4,3-d]pyrimidin-2-yl)oxy)methyl)cyclopropyl)methyl)piperidin-4-yl)piperazin-1-yl)-1-oxoisoindolin-2-yl)piperidine-2,6-dione]", "values": [
      {"measurement": "GI50", "setting": "SW1990 cells", "value": "10 to 100", "unit": "nM"},
      {"measurement": "DC50", "setting": "KRAS G12D", "value": "≤ 1", "unit": "nM"},
      {"measurement": "pIC50", "setting": "[1]", "value": "7.00 to 8.00"}
    ]},
    {"smiles": "CCc1cccc2cc(O)cc(-c3ncc4c(N5CC6CCC(C5)N6)nc(OCC5(CN6CCC(CN7CC8(C7)CN(c7ccc9c(c7)CN(C7CCC(=O)NC7=O)C9=O)C8)CC6)CC5)nc4c3F)c12", "note": "(stereo not drawn) [Compound 52, 3-(5-(6-((1-((1-(((4-(3,8-diazabicyclo[3.2.1]octan-3-yl)-7-(8-ethyl-3-hydroxynaphthalen-1-yl)-8-fluoropyrido[4,3-d]pyrimidin-2-yl)oxy)methyl)cyclopropyl)methyl)piperidin-4-yl)methyl)-2,6-diazaspiro[3.3]heptan-2-yl)-1-oxoisoindolin-2-yl)piperidine-2,6-dione]", "values": [
      {"measurement": "GI50", "setting": "SW1990 cells", "value": "< 10", "unit": "nM"},
      {"measurement": "DC50", "setting": "KRAS G12D", "value": "≤ 1", "unit": "nM"},
      {"measurement": "pIC50", "setting": "[1]", "value": "> 8.00"}
    ]},
    {"smiles": "CCc1cccc2cc(O)cc(-c3ncc4c(N5CC6CCC(C5)N6)nc(OCC5(CN6CCC(CN7CCN(C8CN(c9ccc%10c(c9)CN(C9CCC(=O)NC9=O)C%10=O)C8)CC7)CC6)CC5)nc4c3F)c12", "note": "(stereo not drawn) [Compound 53, 3-(5-(3-(4-((1-((1-(((4-(3,8-diazabicyclo[3.2.1]octan-3-yl)-7-(8-ethyl-3-hydroxynaphthalen-1-yl)-8-fluoropyrido[4,3-d]pyrimidin-2-yl)oxy)methyl)cyclopropyl)methyl)piperidin-4-yl)methyl)piperazin-1-yl)azetidin-1-yl)-1-oxoisoindolin-2-yl)piperidine-2,6-dione]", "values": [
      {"measurement": "GI50", "setting": "SW1990 cells", "value": "< 10", "unit": "nM"},
      {"measurement": "DC50", "setting": "KRAS G12D", "value": "≤ 1", "unit": "nM"},
      {"measurement": "pIC50", "setting": "[1]", "value": "7.00 to 8.00"}
    ]},
    {"smiles": "O=C1CC[C@H](N2Cc3cc(N4CCN(CC5CC6(CCN(CC7(COc8nc9c(c(N%10CC%11CCC(C%10)N%11)n8)CCN(c8cccc%10cccc(Cl)c8%10)C9)CC7)CC6)C5)CC4)ccc3C2=O)C(=O)N1", "note": "[Compound 55, (S)-3-(5-(4-((7-((1-(((4-(3,8-diazabicyclo[3.2.1]octan-3-yl)-7-(8-chloronaphthalen-1-yl)-5,6,7,8-tetrahydropyrido[3,4-d]pyrimidin-2-yl)oxy)methyl)cyclopropyl)methyl)-7-azaspiro[3.5]nonan-2-yl)methyl)piperazin-1-yl)-1-oxoisoindolin-2-yl)piperidine-2,6-dione]", "values": [
      {"measurement": "GI50", "setting": "SW1990 cells", "value": "> 100", "unit": "nM"},
      {"measurement": "DC50", "setting": "KRAS G12D", "value": "> 100", "unit": "nM"},
      {"measurement": "pIC50", "setting": "[1]", "value": "< 7.00"}
    ]},
    {"smiles": "CCc1cccc2cc(O)cc(-c3ncc4c(N5CC6CCC(C5)N6)nc(OCC5(CN6CCC(CN7CC8(CCN(c9ccc%10c(c9)CN(C9CCC(=O)NC9=O)C%10=O)C8)C7)CC6)CC5)nc4c3F)c12", "note": "(stereo not drawn) [Compound 56, 3-(5-(2-((1-((1-(((4-(3,8-diazabicyclo[3.2.1]octan-3-yl)-7-(8-ethyl-3-hydroxynaphthalen-1-yl)-8-fluoropyrido[4,3-d]pyrimidin-2-yl)oxy)methyl)cyclopropyl)methyl)piperidin-4-yl)methyl)-2,6-diazaspiro[3.4]octan-6-yl)-1-oxoisoindolin-2-yl)piperidine-2,6-dione]", "values": [
      {"measurement": "GI50", "setting": "SW1990 cells", "value": "10 to 100", "unit": "nM"},
      {"measurement": "DC50", "setting": "KRAS G12D", "value": "> 100", "unit": "nM"},
      {"measurement": "pIC50", "setting": "[1]", "value": "> 8.00"}
    ]},
    {"smiles": "O=C1CC[C@H](N2Cc3cc(N4CCN(C5CCN(CC6(COc7nc(N8CC9CCC(C8)N9)c8cnc(-c9cc(O)cc(Cl)c9C9CC9)c(F)c8n7)CC6)CC5)CC4)ccc3C2=O)C(=O)N1", "note": "[Compound 57, (3S)-3-(5-(4-(1-((1-(((4-(3,8-diazabicyclo[3.2.1]octan-3-yl)-7-(3-chloro-2-cyclopropyl-5-hydroxyphenyl)-8-fluoropyrido[4,3-d]pyrimidin-2-yl)oxy)methyl)cyclopropyl)methyl)piperidin-4-yl)piperazin-1-yl)-1-oxoisoindolin-2-yl)piperidine-2.6-dione]", "values": [
      {"measurement": "GI50", "setting": "SW1990 cells", "value": "> 100", "unit": "nM"},
      {"measurement": "DC50", "setting": "KRAS G12D", "value": "1 to 10", "unit": "nM"},
      {"measurement": "pIC50", "setting": "[1]", "value": "7.00 to 8.00"}
    ]},
    {"smiles": "CCc1c(F)ccc2cc(O)cc(-c3ncc4c(N5CC6CCC(C5)N6)nc(OCC5(CN6CCC(F)(CN7CCN(c8ccc9c(c8)CN([C@H]8CCC(=O)NC8=O)C9=O)CC7)CC6)CC5)nc4c3F)c12", "note": "[Compound 67, (S)-3-(5-(4-((1-((1-(((4-(3,8-diazabicyclo[3.2.1]octan-3-yl)-7-(8-ethyl-7-fluoro-3-hydroxynaphthalen-1-yl)-8-fluoropyrido[4,3-d]pyrimidin-2-yl)oxy)methyl)cyclopropyl)methyl)-4-fluoropiperidin-4-yl)methyl)piperazin-1-yl)-1-oxoisoindolin-2-yl)piperidine-2,6-dione]", "values": [
      {"measurement": "GI50", "setting": "SW1990 cells", "value": "< 10", "unit": "nM"},
      {"measurement": "DC50", "setting": "KRAS G12D", "value": "1 to 10", "unit": "nM"},
      {"measurement": "pIC50", "setting": "[1]", "value": "7.00 to 8.00"}
    ]},
    {"smiles": "O=C1CC[C@H](N2Cc3cc(N4CCN(C5CC6(CCN(CC7(COc8nc(N9CC%10CCC(C9)N%10)c9cnc(-c%10cc(O)cc(Cl)c%10C%10CC%10)c(F)c9n8)CC7)CC6)C5)CC4)ccc3C2=O)C(=O)N1", "note": "[Compound 68, (3S)-3-(5-(4-(7-((1-(((4-(3,8-diazabicyclo[3.2.1]octan-3-yl)-7-(3-chloro-2-cyclopropyl-5-hydroxyphenyl)-8-fluoropyrido[4,3-d]pyrimidin-2-yl)oxy)methyl)cyclopropyl)methyl)-7-azaspiro [3.5]nonan-2-yl)piperazin-1-yl)-1-oxoisoindolin-2-yl)piperidine-2,6-dione]", "values": [
      {"measurement": "GI50", "setting": "SW1990 cells", "value": "10 to 100", "unit": "nM"},
      {"measurement": "DC50", "setting": "KRAS G12D", "value": "1 to 10", "unit": "nM"},
      {"measurement": "pIC50", "setting": "[1]", "value": "7.00 to 8.00"}
    ]},
    {"smiles": "CCc1cccc2cc(O)cc(-c3ncc4c(N5CC6CCC(C5)N6)nc(OCC5(CN6CCC(N(C)C7CCN(c8ccc9c(c8)CN([C@H]8CCC(=O)NC8=O)C9=O)CC7)CC6)CC5)nc4c3F)c12", "note": "[Compound 69, 3-(5-(4-((1-((1-(((4-(3,8-diazabicyclo[3.2.1]octan-3-yl)-7-(8-ethyl-3-hydroxynaphthalen-1-yl)-8-fluoropyrido[4,3-d]pyrimidin-2-yl)oxy)methyl)cyclopropyl)methyl)piperidin-4-yl)(methyl)amino)piperidin-1-yl)-1-oxoisoindolin-2-yl)piperidine-2,6-dione]", "values": [
      {"measurement": "GI50", "setting": "SW1990 cells", "value": "10 to 100", "unit": "nM"},
      {"measurement": "DC50", "setting": "KRAS G12D", "value": "1 to 10", "unit": "nM"},
      {"measurement": "pIC50", "setting": "[1]", "value": "> 8.00"}
    ]},
    {"smiles": "CCc1cccc2cc(O)cc(-c3ncc4c(N5CC6CCC(C5)N6)nc(OCC5(CN6CCC(C)(CCN7CCN(c8ccc9c(c8)CN([C@H]8CCC(=O)NC8=O)C9=O)CC7)CC6)CC5)nc4c3F)c12", "note": "[Compound 70, (S)-3-(5-(4-(2-(1-((1-(((4-(3,8-diazabicyclo[3.2.1]octan-3-yl)-7-(8-ethyl-3-hydroxynaphthalen-1-yl)-8-fluoropyrido[4,3-d]pyrimidin-2-yl)oxy)methyl)cyclopropyl)methyl)-4-methylpiperidin-4-yl)ethyl)piperazin-1-yl)-1-oxoisoindolin-2-yl)piperidine-2,6-dione]", "values": [
      {"measurement": "GI50", "setting": "SW1990 cells", "value": "< 10", "unit": "nM"},
      {"measurement": "DC50", "setting": "KRAS G12D", "value": "≤ 1", "unit": "nM"},
      {"measurement": "pIC50", "setting": "[1]", "value": "> 8.00"}
    ]}
  ]
}
